Measurements as given in ChEMBL document CHEMBL3875223, “Activation of lysine-specific demethylase 1 inhibitor peptide by redox-controlled cleavage of a traceless linker” (Bioorg Med Chem, 2017).

Biological target: Lysine-specific histone demethylase 1A (Homo sapiens, UniProt O60341)
Test: Inhibition of human LSD1 assessed as reduction in H2O2 production using H3K4me2 (1 to 20 residues) peptide as substrate preincubated for 10 mins followed by substrate addition measured after 30 mins in presence of DTT by peroxidase coupled enzyme assay

In the case of `CC(C)C[C@H](NC(=O)[C@H](Cc1ccccc1)NC(=O)[C@H](CO)NC(=O)[C@H](CCCNC(=N)N)NC(=O)[C@@H]1CCCN1C(=O)CO)C(=O)N[C@H](C(=O)N[C@@H](CCCNC(=N)N)C(=O)N[C@@H](CCCCN)C(=O)N1CCC[C@H]1C(=O)N[C@@H](CCCCNC(=O)CO)C(N)=O)C(C)C`, the Ki is reported as 190 µM.
